Results taken from US6770596B1, “Fused tricyclic compounds, process for their preparation, and herbicidal compositions containing them” (Ishihara Sangyo Kaisha Ltd., priority 2002, dated 2004).

How the values were obtained:
Type in all cases: in vivo
[1] = test system: sicklepod (Cassia obtusifolia, CAO); test: Post-emerge test, sicklepod; details: 250 g ai/ha, 14 days after application, rating scale 0-100 (0 no damage, 100 complete death)
In short: (§1)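 Each score is a 0-100 visual rating made 14 days post-spray, with 100 meaning all plants dead. Application was post-emergence at the 2-3 leaf stage, 8-1000 g ai/ha in acetone plus 0.25% v/v surfactant.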

[2] = test system: velvetleaf (Abutilon theophrasti, ABT); test: Post-emerge test, velvetleaf; details: 250 g ai/ha, 14 days after application, rating scale 0-100 (0 no damage, 100 complete death)
In short: as §1

[3] = test system: wheat (Triticum aestivum); test: Post-emerge test, crop damage wheat
In short: as §1

[4] = test system: upland rice (Oryza sp., var.Tebonnet, RICE); test: Pre-emerge test, crop damage upland rice
In short: (§2)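 Pots (10 cm, sandy loam mix) were seeded one day ahead of spraying. Test materials, dissolved in acetone, went on at 8–1000 g ai/ha in a 187 l/ha spray volume. Damage was scored 14 days later from 0 (none) to 100 (total kill).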

[5] = test system: large crabgrass (Digitaria sanguinalis, DIS); test: Post-emerge test, large crabgrass; details: 250 g ai/ha, 14 days after application, rating scale 0-100 (0 no damage, 100 complete death)
In short: as §1

[6] = test system: cocklebur (Xanthium strumariunt, XAS); test: Pre-emerge test, cocklebur; details: 250 g ai/ha, 14 days after application, rating scale 0-100 (0 no damage, 100 complete death)
In short: (§3)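 Compounds are applied in acetone to freshly sown soil (planted one day earlier) at 8 g ai/ha up to 1000 g ai/ha via track sprayer. Plants are assessed at 14 days on a 0–100 injury scale.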

[7] = test system: common ragweed (Ambrosia artemisiifolia L., AML); test: Pre-emerge test, common ragweed; details: 250 g ai/ha, 14 days after application, rating scale 0-100 (0 no damage, 100 complete death)
In short: as §3

[8] = test system: lambsquarters (Chenopodium album, CHA); test: Pre-emerge test, lambsquarters; details: 250 g ai/ha, 14 days after application, rating scale 0-100 (0 no damage, 100 complete death)
In short: as §3

[9] = test system: barnyardgrass (Echinachloa crus-galli, ECC); test: Post-emerge test, barnyardgrass; details: 250 g ai/ha, 14 days after application, rating scale 0-100 (0 no damage, 100 complete death)
In short: as §1

[10] = test system: sicklepod (Cassia obtusifolia, CAO); test: Pre-emerge test, sicklepod; details: 250 g ai/ha, 14 days after application, rating scale 0-100 (0 no damage, 100 complete death)
In short: as §3

[11] = test system: field corn (Zea mays L., var. Dekalb 535, CORN); test: Pre-emerge test, crop damage field corn
In short: as §2

[12] = test system: common ragweed (Ambrosia artemisiifolia L., AML); test: Post-emerge test, common ragweed; details: 250 g ai/ha, 14 days after application, rating scale 0-100 (0 no damage, 100 complete death)
In short: as §1

[13] = test system: ivyleaf morningglory (Ipomoea hederacea, IPH); test: Post-emerge test, ivyleaf morningglory; details: 250 g ai/ha, 14 days after application, rating scale 0-100 (0 no damage, 100 complete death)
In short: as §1

[14] = test system: soybean (Glycine max L., var. Pella 86, SOY); test: Pre-emerge test, crop damage soybean
In short: as §2

[15] = test system: green foxtail (Setaria viridis, SEV); test: Pre-emerge test, green foxtail; details: 250 g ai/ha, 14 days after application, rating scale 0-100 (0 no damage, 100 complete death)
In short: as §3

[16] = test system: johnsongrass (Sorghum halepense, SOH); test: Post-emerge test, johnsongrass; details: 250 g ai/ha, 14 days after application, rating scale 0-100 (0 no damage, 100 complete death)
In short: as §1

[17] = test system: ivyleaf morningglory (Ipomoea hederacea, IPH); test: Pre-emerge test, ivyleaf morningglory; details: 250 g ai/ha, 14 days after application, rating scale 0-100 (0 no damage, 100 complete death)
In short: as §3

[18] = test system: wheat (Triticum aestivum); test: Pre-emerge test, crop damage wheat
In short: as §2

[19] = test system: lambsquarters (Chenopodium album, CHA); test: Post-emerge test, lambsquarters; details: 250 g ai/ha, 14 days after application, rating scale 0-100 (0 no damage, 100 complete death)
In short: as §1

[20] = test system: large crabgrass (Digitaria sanguinalis, DIS); test: Pre-emerge test, large crabgrass; details: 250 g ai/ha, 14 days after application, rating scale 0-100 (0 no damage, 100 complete death)
In short: as §3

[21] = test system: green foxtail (Setaria viridis, SEV); test: Post-emerge test, green foxtail; details: 250 g ai/ha, 14 days after application, rating scale 0-100 (0 no damage, 100 complete death)
In short: as §1

[22] = test system: barnyardgrass (Echinachloa crus-galli, ECC); test: Pre-emerge test, barnyardgrass; details: 250 g ai/ha, 14 days after application, rating scale 0-100 (0 no damage, 100 complete death)
In short: as §3

[23] = test system: redroot pigweed (Amaranthus retroflexus, AMR); test: Pre-emerge test, redroot pigweed; details: 250 g ai/ha, 14 days after application, rating scale 0-100 (0 no damage, 100 complete death)
In short: as §3

[24] = test system: field corn (Zea mays L., var. Dekalb 535, CORN); test: Post-emerge test, crop damage field corn
In short: as §1

[25] = test system: soybean (Glycine max L., var. Pella 86, SOY); test: Post-emerge test, crop damage soybean
In short: as §1

[26] = test system: cocklebur (Xanthium strumariunt, XAS); test: Post-emerge test, cocklebur; details: 250 g ai/ha, 14 days after application, rating scale 0-100 (0 no damage, 100 complete death)
In short: as §1

[27] = test system: redroot pigweed (Amaranthus retroflexus, AMR); test: Post-emerge test, redroot pigweed; details: 250 g ai/ha, 14 days after application, rating scale 0-100 (0 no damage, 100 complete death)
In short: as §1

[28] = test system: velvetleaf (Abutilon theophrasti, ABT); test: Pre-emerge test, velvetleaf; details: 250 g ai/ha, 14 days after application, rating scale 0-100 (0 no damage, 100 complete death)
In short: as §3

[29] = test system: upland rice (Oryza sp., var.Tebonnet, RICE); test: Post-emerge test, crop damage upland rice
In short: as §1

[30] = test system: johnsongrass (Sorghum halepense, SOH); test: Pre-emerge test, johnsongrass; details: 250 g ai/ha, 14 days after application, rating scale 0-100 (0 no damage, 100 complete death)
In short: as §3

[31] = Triticum aestivum (wheat), in vivo, 14 days
[32] = var. Tebonnet, Oryza sp. (upland rice), in vivo, 14 days
[33] = var. Dekalb 535, Zea mays (field corn), in vivo, 14 days
[34] = var. Pella 86, Glycine max (soybean), in vivo, 14 days
[35] = post-emerge, 250 g ai/ha, 14 days after application, rating scale 0-100 (0 no damage, 100 complete death)
[36] = pre-emerge, 250 g ai/ha, 14 days after application, rating scale 0-100 (0 no damage, 100 complete death)

Structure (SMILES): C[C@H]1Oc2cc(F)c(-c3nn(C)c(OC(F)F)c3Cl)c3c2N(CC(=O)N3)C1=O [1-55, 8-[-4-Chloro-5-(difluoromethoxy)-1-methyl-1H-pyrazol-3-yl)-9-fluoro-2-R-methyl-5H-pyrazino[1,2,3-de]-1,4-benzoxazine-3,6(2H, 7H)-dione]
- Post-emerge Herbicidal Activity CAO (phytotoxicity rating) [1]: 99
- Post-emerge Herbicidal Activity ABT (phytotoxicity rating) [2]: 100
- Post-emerge crop damage WHEAT (phytotoxicity rating) [3, 31]: 50
- Pre-emerge crop damage RICE (phytotoxicity rating) [4, 32]: 40
- Post-emerge Herbicidal Activity DIS (phytotoxicity rating) [5]: 35
- Pre-emerge Herbicidal Activity XAS (phytotoxicity rating) [6]: 95
- Pre-emerge Herbicidal Activity AML (phytotoxicity rating) [7]: 100
- Pre-emerge Herbicidal Activity CHA (phytotoxicity rating) [8]: 100
- Post-emerge Herbicidal Activity ECC (phytotoxicity rating) [9]: 95
- Pre-emerge Herbicidal Activity CAO (phytotoxicity rating) [10]: 100
- Pre-emerge crop damage CORN (phytotoxicity rating) [11, 33]: 20
- Post-emerge Herbicidal Activity AML (phytotoxicity rating) [12]: 85
- Post-emerge Herbicidal Activity IPH (phytotoxicity rating) [13]: 100
- Pre-emerge crop damage SOY (phytotoxicity rating) [14, 34]: 60
- Pre-emerge Herbicidal Activity SEV (phytotoxicity rating) [15]: 100
- Post-emerge Herbicidal Activity SOH (phytotoxicity rating) [16]: 50
- Pre-emerge Herbicidal Activity IPH (phytotoxicity rating) [17]: 100
- Pre-emerge crop damage WHEAT (phytotoxicity rating) [18, 31]: 3
- Post-emerge Herbicidal Activity CHA (phytotoxicity rating) [19]: 100
- Pre-emerge Herbicidal Activity DIS (phytotoxicity rating) [20]: 100
- Post-emerge Herbicidal Activity SEV (phytotoxicity rating) [21]: 99
- Pre-emerge Herbicidal Activity ECC (phytotoxicity rating) [22]: 100
- Pre-emerge Herbicidal Activity AMR (phytotoxicity rating) [23]: 100
- Post-emerge crop damage CORN (phytotoxicity rating) [24, 33]: 15
- Post-emerge crop damage SOY (phytotoxicity rating) [25, 34]: 75
- Post-emerge Herbicidal Activity XAS (phytotoxicity rating) [26]: 100
- Post-emerge Herbicidal Activity AMR (phytotoxicity rating) [27]: 100
- Pre-emerge Herbicidal Activity ABT (phytotoxicity rating) [28]: 99
- Post-emerge crop damage RICE (phytotoxicity rating) [29, 32]: 75
- Pre-emerge Herbicidal Activity SOH (phytotoxicity rating) [30]: 100

Structure (SMILES): CC1C(=O)Nc2c3c(cc(F)c2-n2c(=O)cc(C(F)(F)F)n(C)c2=O)OCC(=O)N31 (stereo not drawn) [1-2]
- Post-emerge Herbicidal Activity CAO (phytotoxicity rating) [1]: 0
- Post-emerge Herbicidal Activity ABT (phytotoxicity rating) [2]: 100
- Post-emerge crop damage WHEAT (phytotoxicity rating) [3, 35]: 25
- Pre-emerge crop damage RICE (phytotoxicity rating) [4, 36]: 100
- Post-emerge Herbicidal Activity DIS (phytotoxicity rating) [5]: 0
- Pre-emerge Herbicidal Activity XAS (phytotoxicity rating) [6]: 99
- Pre-emerge Herbicidal Activity AML (phytotoxicity rating) [7]: 100
- Pre-emerge Herbicidal Activity CHA (phytotoxicity rating) [8]: 100
- Post-emerge Herbicidal Activity ECC (phytotoxicity rating) [9]: 60
- Pre-emerge Herbicidal Activity CAO (phytotoxicity rating) [10]: 99
- Pre-emerge crop damage CORN (phytotoxicity rating) [11, 36]: 100
- Post-emerge Herbicidal Activity AML (phytotoxicity rating) [12]: 65
- Post-emerge Herbicidal Activity IPH (phytotoxicity rating) [13]: 90
- Pre-emerge crop damage SOY (phytotoxicity rating) [14, 36]: 99
- Pre-emerge Herbicidal Activity SEV (phytotoxicity rating) [15]: 100
- Post-emerge Herbicidal Activity SOH (phytotoxicity rating) [16]: 20
- Pre-emerge Herbicidal Activity IPH (phytotoxicity rating) [17]: 100
- Pre-emerge crop damage WHEAT (phytotoxicity rating) [18, 36]: 100
- Post-emerge Herbicidal Activity CHA (phytotoxicity rating) [19]: 80
- Pre-emerge Herbicidal Activity DIS (phytotoxicity rating) [20]: 100
- Post-emerge Herbicidal Activity SEV (phytotoxicity rating) [21]: 60
- Pre-emerge Herbicidal Activity ECC (phytotoxicity rating) [22]: 100
- Pre-emerge Herbicidal Activity AMR (phytotoxicity rating) [23]: 100
- Post-emerge crop damage CORN (phytotoxicity rating) [24, 35]: 10
- Post-emerge crop damage SOY (phytotoxicity rating) [25, 35]: 50
- Post-emerge Herbicidal Activity XAS (phytotoxicity rating) [26]: 75
- Post-emerge Herbicidal Activity AMR (phytotoxicity rating) [27]: 90
- Pre-emerge Herbicidal Activity ABT (phytotoxicity rating) [28]: 100
- Post-emerge crop damage RICE (phytotoxicity rating) [29, 35]: 70
- Pre-emerge Herbicidal Activity SOH (phytotoxicity rating) [30]: 100
